Laboratory results as given in patent US9181263B2, “Inhibitors of bruton's tyrosine kinase” (PHARMACYCLICS, INC., priority 2007, dated 2015).

Assays:
[1] = Glutathione binding assay; type: physicochemical; conditions: 5 mM glutathione, 10 μM inhibitor, potassium phosphate buffer, room temperature, HPLC
Description: A calculated value (e.g (1/Btk IC50)/Glutathione conjugation rate) as shown in the Table 2) is used to compare compounds for their ratio between potency at inhibiting their target and their non-specific binding to other SH groups, such as those in glutathione. […] Calculated ratios such as these are used to quantitatively compare different compounds and select compounds for further study.
For the glutathione binding assays, 5 mM glutathione, 10 μM Btk inhibitor in DMSO (10 μL) and 6 equivalents of N′N′ Diisopropyl ethyl amine were combined in 1 mL potassium phosphate buffer. The mixture was incubated for 0, 15, 60 minutes at room temperature and the reaction was stopped with 10 equivalents of formic acid. 50 μL of each reaction mixture was injected on HPLC (Mobil Phase A: 0.2% formic acid in water, Mobile Phase B: 0.2% formic acid in acetonitrile, HPLC Column: Metasil Basic 3μ, 150×4.6 mm, 10% B, Gradient: 10% to 90% B, Detection: UV/Vis […]). Rate of reaction was reported as nmole GSH conjugate conversion per minute from the normalized ratio for area under the curve from HPLC chromatograms for both GSH conjugate and the parent.

[2] = system: lymphoma cell line DOHH2; assay: DOHH2 cell proliferation assay (Alamar Blue); type: cell-based; conditions: Homo sapiens, DOHH-2, 72 hours
Description: After 72 hours, cell number was measured using Alamar Blue using manufacturer's protocol. A dilution series of untreated cells was run in parallel to verify that the Alamar Blue assay reliably reflected cell number and that growth conditions were not limiting. […] GI50 values were confirmed in two or more separate experiments for each cell line.
Analogs are generated that are Btk inhibitors and that are cytotoxic to the lymphoma cell line DOHH2. For the DOHH2 cell proliferation assay, cells were seeded in 96-well plates in standard growth media (RPMI+10% fetal calf serum) and compounds were added in a 9-point dilution series ranging from 10 uM to 0.04 uM with DMSO at 0.1% final concentration in all wells. After 72 hours, cell number was measured using Alamar Blue using manufacturer's protocol. A dilution series of untreated cells was run in parallel to verify that the Alamar Blue assay reliably reflected cell number and that growth conditions were not limiting.

Glutathione Conj Rate [1]: 0.004525 nmol/min
GI50 [2]: > 10 µM
Structure (SMILES): CN(C)C/C=C/C(=O)N1CCC[C@@H]1Cn1nc(-c2ccc(Oc3ccccc3)cc2)c2c(N)ncnc21 [Compound 11, (E)-1-((R)-2-((4-amino-3-(4-phenoxyphenyl)-1H-pyrazolo[3,4-d]pyrimidin-1-yl)methyl)pyrolidin-1-yl)-4-(dimethylamino)but-2-en-1-one]
